Tested on: LG0703-F948-PDC complex spheroid viability
Assay: Anticancer human tumor LG0703-F948-PDC patient-derived lung adenocarcinoma cell line growth inhibition [RAS]
Details: for viability, T/C: stronger effect = lower value
Excerpt: RAS pathway inhibitors in Combinations in Complex Spheroids
A high-throughput screen of multi-cell type tumor spheroids was designed to identify active combinations of RAS pathway inhibitors and targeted small molecules. Complex spheroids include a stromal component modeled by human endothelial cells (HUVEC) and fibroblasts modeled by human mesenchymal stem cells (MSCs). The concentration ranges selected for each drug and investigational agent were based upon clinically achievable concentrations if the clinical Cmax of the agent was known.
Compounds. The drugs and investigational agents: abemaciclib (NSC768073), cobimetinib (NSC768068), divarasib (GDC6063, NSC841802), docetaxel (NSC628503), GDC-1971 (RLY-1971, NSC841576), gemcitabine (NSC613327), inavolisib (NSC800729), ipatasertib (NSC767898), KB-0742 (NSC834161), MRTX-1133 (NSC836407), osimertinib (NSC779217), RMC-4630 (NSC839698), RMC-6236 (NSC851965), RMC-6291 (NSC852671), Ro-3306 (NSC812927), sapanisertib (NSC764658), SN-38 (NSC673596), staurosporine (NSC755774), SY5609 (NSC837396), and tovorafenib (DAY101, NSC766906), were obtained from the National Cancer Institute (NCI) Developmental Therapeutics Program Chemical Repository. The FDA-approved anticancer drug set is available from the NCI Developmental Therapeutics Program. […] The stock solutions were prepared in dimethyl sulfoxide (DMSO, Sigma-Aldrich, St. Louis, MO, cat. D2650) at 800-fold the tested concentration and stored at -70 degrees C prior to their use. All drugs and investigational agents were tested over a range starting from a high concentration at or near the clinical Cmax and decreasing in half-log increments. If the clinical Cmax for an agent had not been determined, the highest concentration tested was 10 microM.
Cell Culture. All cells were maintained in an incubator at 37 degrees C and 5% CO2 with 95% humidity. The PDC lines were cultured according to standard operating procedures established by the NCI PDMR. All PDCs were thawed and cultured in Matrigel-coated flasks prepared with a working solution of 1X Ham's F-12 nutrient mix, without supplementation (Invitrogen, Waltham, MA, cat. 11765054), 100 U/mL penicillin-streptomycin (Invitrogen, cat. 15140122), and 2.5% Matrigel (Corning Inc., Corning, NY, cat. 354248) for the first three passages. The 362531-283-R-J2-PDC and 782815-120-R-J1-PDC lines were cultured in 6C/Colon 1B media, which includes advanced DMEM/F-12 (Thermo Fisher Scientific, cat. 12634028), 10 mM HEPES (Thermo Fisher Scientific, cat. 15630080), 1X GlutaMAX supplement (Thermo Fisher Scientific, cat. 35050061), 0.1 mg/mL primocin (InvivoGen, San Diego, CA, cat. ant-pm-2), 10% defined fetal bovine serum, heat inactivated (HyClone Laboratories Inc., Logan, UT, cat. SH30070.03HI), 50% L-WRN conditioned media (ATCC, cat. CRL-3276), 1.25 mM N-Acetyl-L-cysteine (Sigma-Aldrich, cat. A9165), 10 mM nicotinamide (Sigma-Aldrich, cat. N0636), 1X B-27 supplement (Thermo Fisher Scientific, cat. 17504044), 1X N-2 supplement (Thermo Fisher Scientific, cat. 17502048), 50 ng/mL human EGF (Thermo Fisher Scientific, cat. PHG0311), and 10 microM Y-27632 dihydrochloride (Tocris Bioscience, cat. 1254). The K12877-001-R-J1-PDC line was cultured in 6I media, which includes all 6C/Colon 1B media plus 10 ng/mL human FGF-10 (PeproTech, cat. 100-26), 1 ng/mL human FGF-2 (PeproTech, cat. 100-18B), 1 µM prostaglandin E2 (Tocris Bioscience, cat. 2296), […] hydrocortisone (Sigma-Aldrich, cat. H4001), and […] bovine insulin (Sigma-Aldrich, cat. I6634). The K86415-001-R-J1-PDC line was cultured in 6D media, which includes all 6C/Colon 1B media components minus the L-WRN conditioned media. The 485176-168-R4-J1-PDC was cultured in PANC media, which includes all 6C/Colon 1B media plus 100 ng/mL human FGF-10 (PeproTech, cat. 100-26), 500 nM SB-431542 (Selleckchem, cat. S1067), and 10 nM gastrin (Tocris Bioscience, cat. 3006). […]
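Also: spheroids exposed to agents for 7 days.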
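For viability, T/C in this document: 100% = DMSO vehicle wells.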

`Nc1ccn(C2OC(CO)C(O)C2(F)F)c(=O)n1` (stereo not given) + CCn1c(-c2cc(N3CCN(C)CC3)cnc2C(C)OC)c2c3cc(ccc31)-c1csc(n1)CC(NC(=O)C1CC1C)C(=O)N1CCCC(N1)C(=O)OCC(C)(C)C2 gave an IC50 (curve of first compound, second compound 0.000949 µM) of 0.00669 µM, an IC50 (curve of first compound, second compound 0.003 µM) of under 0.00316 µM and an IC50 (curve of first compound, second compound 0.00949 µM) of under 0.00316 µM. The IC50 (curve of first compound, second compound 0.03 µM) was under 0.00316 µM, the IC50 (curve of first compound, second compound 0.0949 µM) was under 0.00316 µM and the IC50 (curve of first compound, second compound 0.3 µM) was under 0.00316 µM. For the same molecule, the viability, T/C (second compound 0.000949 µM, first compound 0.00316 µM) was 65.9%, the viability, T/C (second compound 0.000949 µM, first compound 0.01 µM) was 42.5% and the viability, T/C (second compound 0.000949 µM, first compound 0.0316 µM) was 33.1%. For the same molecule, the viability, T/C (second compound 0.000949 µM, first compound 0.1 µM) was 40.5%, the viability, T/C (second compound 0.000949 µM, first compound 0.316 µM) was 39.5% and the viability, T/C (second compound 0.000949 µM, first compound 1 µM) was 36.2%. It also gave a viability, T/C (second compound 0.003 µM, first compound 0.00316 µM) of 46.4%, a viability, T/C (second compound 0.003 µM, first compound 0.01 µM) of 31.9% and a viability, T/C (second compound 0.003 µM, first compound 0.0316 µM) of 34.1%. It also gave a viability, T/C (second compound 0.003 µM, first compound 0.1 µM) of 28.7%, a viability, T/C (second compound 0.003 µM, first compound 0.316 µM) of 29.6% and a viability, T/C (second compound 0.003 µM, first compound 1 µM) of 32.8%. It also gave a viability, T/C (second compound 0.00949 µM, first compound 0.00316 µM) of 22.8%, a viability, T/C (second compound 0.00949 µM, first compound 0.01 µM) of 18.3% and a viability, T/C (second compound 0.00949 µM, first compound 0.0316 µM) of 17.4%. It also gave a viability, T/C (second compound 0.00949 µM, first compound 0.1 µM) of 13.7%, a viability, T/C (second compound 0.00949 µM, first compound 0.316 µM) of 19.2% and a viability, T/C (second compound 0.00949 µM, first compound 1 µM) of 18.3%. For the same molecule, the viability, T/C (second compound 0.03 µM, first compound 0.00316 µM) was 10.1%, the viability, T/C (second compound 0.03 µM, first compound 0.01 µM) was 11.4% and the viability, T/C (second compound 0.03 µM, first compound 0.0316 µM) was 15.6%. It also gave a viability, T/C (second compound 0.03 µM, first compound 0.1 µM) of 14.2%, a viability, T/C (second compound 0.03 µM, first compound 0.316 µM) of 14.9% and a viability, T/C (second compound 0.03 µM, first compound 1 µM) of 10.5%. It also gave a viability, T/C (second compound 0.0949 µM, first compound 0.00316 µM) of 12.6%, a viability, T/C (second compound 0.0949 µM, first compound 0.01 µM) of 8.4% and a viability, T/C (second compound 0.0949 µM, first compound 0.0316 µM) of 9.27%. It also gave a viability, T/C (second compound 0.0949 µM, first compound 0.1 µM) of 9.86%, a viability, T/C (second compound 0.0949 µM, first compound 0.316 µM) of 8.62% and a viability, T/C (second compound 0.0949 µM, first compound 1 µM) of 8.16%. It also gave a viability, T/C (second compound 0.3 µM, first compound 0.00316 µM) of 10.5%, a viability, T/C (second compound 0.3 µM, first compound 0.01 µM) of 7.77% and a viability, T/C (second compound 0.3 µM, first compound 0.0316 µM) of 11%. For the same molecule, the viability, T/C (second compound 0.3 µM, first compound 0.1 µM) was 6.54%, the viability, T/C (second compound 0.3 µM, first compound 0.316 µM) was 6.46% and the viability, T/C (second compound 0.3 µM, first compound 1 µM) was 5.98%.

Work on `CC(Nc1ccc2c(c1)OCCn1cc(N3C(=O)OCC3C(F)F)nc1-2)C(N)=O` (stereo not given) + C=CC(=O)N1CCN(c2nc(OCC3CCCN3C)nc3c(F)c(-c4nc(N)cc(C)c4C(F)(F)F)c(Cl)cc23)C(C)C1 yielded an IC50 (curve of first compound, second compound 0.00316 µM) of 1.15 µM, an IC50 (curve of first compound, second compound 0.01 µM) of 0.882 µM and an IC50 (curve of first compound, second compound 0.0316 µM) of 0.987 µM. It also gave an IC50 (curve of first compound, second compound 0.1 µM) of 0.967 µM, an IC50 (curve of first compound, second compound 0.316 µM) of 0.962 µM and an IC50 (curve of first compound, second compound 1 µM) of 1.19 µM. The viability, T/C (second compound 0.00316 µM, first compound 0.0316 µM) was 91.8%, the viability, T/C (second compound 0.00316 µM, first compound 0.1 µM) was 84.8% and the viability, T/C (second compound 0.00316 µM, first compound 0.316 µM) was 64.5%. The viability, T/C (second compound 0.00316 µM, first compound 1 µM) was 53.5%, the viability, T/C (second compound 0.00316 µM, first compound 3.16 µM) was 34.7% and the viability, T/C (second compound 0.00316 µM, first compound 10 µM) was 14.8%. For the same molecule, the viability, T/C (second compound 0.01 µM, first compound 0.0316 µM) was 99.9%, the viability, T/C (second compound 0.01 µM, first compound 0.1 µM) was 83.3% and the viability, T/C (second compound 0.01 µM, first compound 0.316 µM) was 62.2%. For the same molecule, the viability, T/C (second compound 0.01 µM, first compound 1 µM) was 49.5%, the viability, T/C (second compound 0.01 µM, first compound 3.16 µM) was 32.9% and the viability, T/C (second compound 0.01 µM, first compound 10 µM) was 14.2%. It also gave a viability, T/C (second compound 0.0316 µM, first compound 0.0316 µM) of 98.9%, a viability, T/C (second compound 0.0316 µM, first compound 0.1 µM) of 86.7% and a viability, T/C (second compound 0.0316 µM, first compound 0.316 µM) of 66.9%. The viability, T/C (second compound 0.0316 µM, first compound 1 µM) was 47.4%, the viability, T/C (second compound 0.0316 µM, first compound 3.16 µM) was 34.6% and the viability, T/C (second compound 0.0316 µM, first compound 10 µM) was 13.5%. For the same molecule, the viability, T/C (second compound 0.1 µM, first compound 0.0316 µM) was 105%, the viability, T/C (second compound 0.1 µM, first compound 0.1 µM) was 86.3% and the viability, T/C (second compound 0.1 µM, first compound 0.316 µM) was 63.9%. The viability, T/C (second compound 0.1 µM, first compound 1 µM) was 50.9%, the viability, T/C (second compound 0.1 µM, first compound 3.16 µM) was 35.2% and the viability, T/C (second compound 0.1 µM, first compound 10 µM) was 12.9%. For the same molecule, the viability, T/C (second compound 0.316 µM, first compound 0.0316 µM) was 113%, the viability, T/C (second compound 0.316 µM, first compound 0.1 µM) was 86.6% and the viability, T/C (second compound 0.316 µM, first compound 0.316 µM) was 68%. For the same molecule, the viability, T/C (second compound 0.316 µM, first compound 1 µM) was 44.3%, the viability, T/C (second compound 0.316 µM, first compound 3.16 µM) was 34.4% and the viability, T/C (second compound 0.316 µM, first compound 10 µM) was 14.8%. For the same molecule, the viability, T/C (second compound 1 µM, first compound 0.0316 µM) was 108%, the viability, T/C (second compound 1 µM, first compound 0.1 µM) was 96.5% and the viability, T/C (second compound 1 µM, first compound 0.316 µM) was 69.2%. The viability, T/C (second compound 1 µM, first compound 1 µM) was 53.5%, the viability, T/C (second compound 1 µM, first compound 3.16 µM) was 36% and the viability, T/C (second compound 1 µM, first compound 10 µM) was 11.7%.

`CC(C)NCC(C(=O)N1CCN(c2ncnc3c2C(C)CC3O)CC1)c1ccc(Cl)cc1` (stereo not given) was tested, and the viability, T/C (compound 0.1 µM) was 90.6% [middle of 4 runs], the viability, T/C (compound 0.316 µM) was 70.8% [middle of 4 runs] and the viability, T/C (compound 1 µM) was 48% [middle of 4 runs]. The viability, T/C (compound 3.16 µM) was 40.3% [middle of 4 runs], the viability, T/C (compound 10 µM) was 32.6% [middle of 4 runs] and the IC50 (curve of compound) was 946 nM [middle of 4 runs].

From PubChem BioAssay AID2060890 (Molecular Pharmacology Branch, DTP, NCI, 2025)
